Experimental data from US10472315B2, “Inhibitors of methionine aminopeptidases and methods of treating disorders” (THE JOHNS HOPKINS UNIVERSITY, priority 2009, dated 2019).
Converted amounts (≈) assume the structure as drawn. “And” between values parts separate entries of the source, which are not always exact repeats. Equal entries are not always repeated. “Also recorded” adds a separate entry of the source. Where two headings read alike, the source gives them in different places.

Assays:
MtMetAP1c = biological target: T1, MtMetAP1c (Mycobacterium tuberculosis, UniProt P9WK19); experiment: Coupled methionine-proline aminopeptidase assay (Met-Pro-pNA), IC50 determination; format: biochemical, M. tuberculosis; details: for inhibition of MtMetAP1c, in words: statement on MtMetAPs / both enzymes
T1 construct: made in house; host or cells: E. coli BL21
Protocol: (§1) Determination of IC50 of Inhibitors of MtMetAPs and Clustering of Structural Classes of Inhibitors (ASDI-ISIS)
(§2) We determined the concentration needed for 50% inhibition in 96-well plates at final concentrations ranging from 100 μM-300 nM (for 81 compounds that were available in larger quantities). The total reaction volume was 50 μL and each reaction contained each MtMetAP1 respectively and 40 mM Hepes buffer (p.H 7.5), 100 mM NaCl, 100 μg/mL BSA, 0.1 U/mL ProAP, 1.5 μM CoCl2, 600 μM substrate (Met-Pro-pNA). The enzyme was pre-incubated with compounds for 20 min at room temperature followed by addition of substrate. The reaction was incubated at room temperature for 30 min and monitored at 405 nm on a spectrophotometer. The background hydrolysis was corrected and the data was fitted against the sigmoidal-dose response (variable slope) equation using GraphPad Prism software.

MtMetAP1a = biological target: T2, MtMetAP1a (Mycobacterium tuberculosis, UniProt P9WK21); experiment: as above; format: biochemical, M. tuberculosis; details: for inhibition of MtMetAP1a, in words: statement on MtMetAPs / both enzymes
T2 construct: made in house; host or cells: E. coli BL21 (DE3)
Protocol: as §1, §2

M. tuberculosis H37Rv = experiment: Minimum inhibitory concentration in replicating M. tuberculosis; format: cell-based; details: for MIC: Mycobacterium tuberculosis, H37RV, 336 h, read-out: M.I.C. (μg/mL) M. tuberculosis
[1] = test system: Aged-cultured M. tuberculosis H37Ra; experiment: microbe, parasite or virus in culture; format: cell-based; details: for MIC: Mycobacterium tuberculosis, H37RA, read-out: M.I.C. (μg/mL) Aged-cultured M. tuberculosis
[2] = recombinant enzyme, 1.5 μM CoCl2, 600 μM Met-Pro-pNA, read-out: IC50 (μM) MtMetAP1a

T2 sequence (P9WK21 whole entry): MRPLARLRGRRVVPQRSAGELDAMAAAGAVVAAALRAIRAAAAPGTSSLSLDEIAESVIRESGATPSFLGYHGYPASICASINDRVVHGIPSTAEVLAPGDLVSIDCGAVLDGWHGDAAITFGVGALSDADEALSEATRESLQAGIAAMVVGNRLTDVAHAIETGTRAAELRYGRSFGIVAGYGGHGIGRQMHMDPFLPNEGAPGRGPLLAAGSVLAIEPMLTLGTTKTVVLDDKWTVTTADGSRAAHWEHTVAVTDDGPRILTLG
T1 sequence (P9WK19 whole entry): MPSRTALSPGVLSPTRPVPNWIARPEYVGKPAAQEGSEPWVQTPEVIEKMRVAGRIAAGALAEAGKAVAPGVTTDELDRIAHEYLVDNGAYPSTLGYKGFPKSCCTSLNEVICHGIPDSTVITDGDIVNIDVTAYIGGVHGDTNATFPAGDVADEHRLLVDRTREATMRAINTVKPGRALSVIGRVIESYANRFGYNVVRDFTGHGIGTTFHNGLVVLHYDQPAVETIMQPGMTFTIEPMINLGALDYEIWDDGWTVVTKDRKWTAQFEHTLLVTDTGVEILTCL

COc1ccc2c(c1)-c1nc(NC=NO)sc1CC2 [Amidoxime 49, N′-hydroxy-N-(8-methoxy-4,5-dihydronaphtho[1,2-d]thiazol-2-yl)formimidamide]
potency against MtMetAP1c when compared to 48 (MtMetAP1c; relative to amidoxime 48): two times less potent

ON=CNc1nc2c(s1)CCOc1cc3c(cc1-2)OCO3 [Amidoxime 58]
IC50 (MtMetAP1a; read-out: inhibitor of MtMetAP1a (potency in text)): 0.76 µM
improvement over the lead-like hit 48, MtMetAP1a (MtMetAP1a; relative to amidoxime 48): 48 fold
inhibition of MtMetAP1a, in words (MtMetAP1a): very potent
IC50 (MtMetAP1c; read-out: inhibitor of MtMetAP1c (potency in text)): 0.06 µM
improvement over the lead-like hit 48, MtMetAP1c (MtMetAP1c; relative to amidoxime 48): 7 fold
inhibition of MtMetAP1c, in words (MtMetAP1c): very potent

O=C1C(Cl)=C(N2C(=O)c3c(Cl)c(Cl)c(Cl)c(Cl)c3C2=O)C(=O)c2ccccc21 [Compound 2]
IC50 (MtMetAP1a; [2]): 4 ± 0.3 µM
increase in MIC values relative to compounds 4 and 20 (M. tuberculosis H37Rv): about a two-fold increase
MIC (M. tuberculosis H37Rv): 25 µg/mL (≈ 52.6 µM)
MIC [1]: 23.8 µg/mL (≈ 50.1 µM)

O=C1C(Cl)=C(N2CCCCC2)C(=O)c2ccccc21 [Compound 3]
IC50 (MtMetAP1a; [2]): 8 ± 1.3 µM
MIC (M. tuberculosis H37Rv): > 25 µg/mL
MIC [1]: > 27.6 µg/mL

O=C1C(Cl)=C(Cl)C(=O)c2ccccc21 [Compound 4, 2,3-dichloro-1,4-naphthoquinone]
IC50 (MtMetAP1a): 3.3 ± 0.3 µM
IC50 (MtMetAP1c): 6.6 ± 1.2 µM
M.I.C. (μg/mL) M. tuberculosis (M. tuberculosis H37Rv): 10 µg/mL
MIC (M. tuberculosis H37Rv): 10 µg/mL (≈ 44 µM)
effectiveness against the aged-cultured form compared with the replicating form [1]: equally effective
MIC [1]: 5.7 to 11.4 µg/mL (≈ 25.1 to 50.2 µM)

NC1=C(Cl)C(=O)c2ccccc2C1=O [Compound 5]
IC50 (MtMetAP1a; [2]): > 100 µM

O=C1C(Cl)=C(NCc2ccc(Cl)cc2)C(=O)c2ccccc21 [Compound 6]
IC50 (MtMetAP1a; [2]): > 100 µM

CN1CCN(C2=C(Cl)C(=O)c3ccccc3C2=O)CC1 [Compound 7]
IC50 (MtMetAP1a; [2]): > 100 µM

O=C1C(Cl)=C(N2CCN(c3cccc(Cl)c3)CC2)C(=O)c2ccccc21 [Compound 8]
IC50 (MtMetAP1a; [2]): > 100 µM

O=C1C(Cl)=C(N2CCN(c3ccc(Cl)c(Cl)c3)CC2)C(=O)c2ccccc21 [Compound 9]
IC50 (MtMetAP1a; [2]): > 100 µM

Cc1ccc(Cl)cc1N1CCN(C2=C(Cl)C(=O)c3ccccc3C2=O)CC1 [Compound 10]
IC50 (MtMetAP1a; [2]): > 100 µM

O=C1C(Cl)=C(Nc2cccc(C(F)(F)F)c2)C(=O)c2ccccc21 [Compound 12]
IC50 (MtMetAP1a; [2]): > 30 µM

O=C1C(Cl)=C(Nc2cccc(F)c2)C(=O)c2ccccc21 [Compound 13]
IC50 (MtMetAP1a; [2]): > 30 µM

COC(=O)c1ccc(NC2=C(Cl)C(=O)c3ccccc3C2=O)cc1 [Compound 14]
IC50 (MtMetAP1a; [2]): > 30 µM

CN(C)c1ccc(NC2=C(Cl)C(=O)c3ccccc3C2=O)cc1 [Compound 15]
IC50 (MtMetAP1a; [2]): > 30 µM

O=C1C(Cl)=C(Nc2ccccc2)C(=O)c2ccccc21 [Compound 16]
IC50 (MtMetAP1a; [2]): > 50 µM

Cc1cccc(NC2=C(Cl)C(=O)c3ccccc3C2=O)c1 [Compound 17]
IC50 (MtMetAP1a; [2]): 18.6 ± 6.1 µM

COc1ccc(NC2=C(Cl)C(=O)c3ccccc3C2=O)cc1 [Compound 18]
IC50 (MtMetAP1a; [2]): 15.9 ± 0.6 µM

Cc1cc(C)cc(NC2=C(Cl)C(=O)c3ccccc3C2=O)c1 [Compound 19]
IC50 (MtMetAP1a; [2]): 13.9 ± 1 µM

O=C1C(Br)=C(Br)C(=O)c2ccccc21 [Compound 20, 2,3-dibromo-1,4-naphthoquinone]
IC50 (MtMetAP1a; [2]): ~1 µM and 1.14 µM
IC50 (MtMetAP1c; recombinant enzyme, 1.5 μM CoCl2, 600 μM Met-Pro-pNA, read-out: IC50 (μM) MtMetAP1c): ~1 µM and 0.71 µM
MIC (M. tuberculosis H37Rv): 10 to 25 µg/mL (≈ 31.7 to 79.1 µM)
effectiveness against the aged-cultured form compared with the replicating form [1]: equally effective

O=C1C(Oc2ccc(F)cc2)=C(Oc2ccc(F)cc2)C(=O)c2ccccc21 [Compound 21]
IC50 (MtMetAP1a; [2]): 4.93 ± 0.2 µM
increase in MIC values relative to compounds 4 and 20 (M. tuberculosis H37Rv): about a two-fold increase
MIC (M. tuberculosis H37Rv): > 25 µg/mL

O=C1C(Cl)=C(Oc2ccc(F)cc2)C(=O)c2ccccc21 [Compound 22]
IC50 (MtMetAP1a; [2]): 7.58 ± 0.28 µM
increase in MIC values relative to compounds 4 and 20 (M. tuberculosis H37Rv): about a two-fold increase
MIC (M. tuberculosis H37Rv): > 25 µg/mL

O=C1C=CC(=O)c2c(O)cccc21 [Compound 23]
IC50 (MtMetAP1a; [2]): > 50 µM

CC1=CC(=O)c2c(O)cccc2C1=O [Compound 24]
IC50 (MtMetAP1a; [2]): > 50 µM

O=C1C=C(O)C(=O)c2ccccc21 [Compound 25]
IC50 (MtMetAP1a; [2]): > 50 µM

CCCN(CCC)C1=C(Cl)C(=O)c2ccccc2C1=O [Compound 26]
IC50 (MtMetAP1a; [2]): > 50 µM

O=C(NC1=C(Cl)C(=O)c2ccccc2C1=O)c1cc(C(F)(F)F)cc(C(F)(F)F)c1 [Compound 27]
IC50 (MtMetAP1a; [2]): > 50 µM

CC1=C(C/C=C(\C)CCCC(C)CCCC(C)C)C(=O)c2ccccc2C1=O (centres unmarked) [Compound 28]
IC50 (MtMetAP1a; [2]): > 50 µM

CC1=CC(=O)c2ccccc2C1=O [Compound 29]
IC50 (MtMetAP1a; [2]): > 50 µM

Oc1c(Br)cc(Cl)c2cccnc12 [Compound 69, 7-bromo-5-chloroquinolin-8-ol]
inhibition of MtMetAP1a, in words (MtMetAP1a): low micromolar range; also recorded: most potent
inhibition of MtMetAP1c, in words (MtMetAP1c): low micromolar range; also recorded: most potent
